Assay results reported in US20240299376A1, “METHOD OF TREATING A CONDITION USING A […] EFFECTIVE DOSE OF 1-(1-OXO-1,2-DIHYDROISOQUINOLIN-5-YL)-5-(TRIFLUOROMETHYL)-N-(2-(TRIFLUOROMETHYL)PYRIDIN-4-YL)-1H-PYRAZOLE-4-CARBOXAMIDE” (Janssen Pharmaceutica NV, priority 2021, published 2024).
“And” between values parts separate entries of the source, which are not always exact repeats. Equal values may be shown once. “Also recorded” adds a separate entry of the source. Read-outs that look alike come from different tables or passages of the source. Marks after values point to notes of the source that are not given here.

Assay: FIH study 67856633LYM1001 plasma pharmacokinetics
Type: in vivo, human
Conditions: for AUC: read-out: AUCτ
From the text: The study consists of a dose escalation phase (Part 1), to determine the recommended Phase 2 dose(s) (RP2D[s]), followed by an expansion phase at the RP2D(s) (Part 2). The dose escalation phase is supported using an adaptive dose escalation strategy guided by the modified continual reassessment method (mCRM) based on a Bayesian Logistic Regression Model (BLRM) with escalation with overdose control (EWOC) principle. The mCRM design allows the use of all cumulative dose-limiting toxicities (DLT) data up to the current dose cohort.
In Part 1, subjects were enrolled in cohorts of daily oral doses at 50 mg, 100 mg, 200 mg (1×200 mg or 4×50 mg), 300 mg (3×100 mg or 6×50 mg), 400 mg (2×200 mg or 8×50 mg), and 600 mg (3×200 mg), and loading dosing cohorts—400 mg loading dose once daily for 14 days, followed by 300 mg once daily, and 300 mg loading dose twice daily for 7 days followed by 300 mg once daily. In Part 2, subjects received daily oral doses of 300 mg.
In Part 1, PK data were available in subjects receiving doses of 50 mg (1×50 mg), 100 mg (2×50 mg), 200 mg (4×50 mg or 1×200 mg), 300 mg (6×50 mg or 3×100 mg), 400 mg (8×50 mg or 2×200 mg), and 600 mg (3×200 mg). Pharmacokinetic data were also available from the loading dose regimens of 400 mg (8×50 mg) loading dose once daily for 14 days followed by 300 mg (6×50 mg) once daily, and 300 mg (6×50 mg) loading dose twice daily for 7 days followed by 300 mg (6×50 mg) once daily.

[1] = Cycle 1 Day 1, 200 mg capsule, cohort 3 × 200 mg, individual values, N = 2, listed as JNJ-67856633
[2] = Cycle 2 Day 1, 50 mg capsule, cohort 6 × 50 mg (300 mg QD), mean, listed as JNJ-67856633
[3] = Cycle 2 Day 1, 200 mg capsule, cohort 200 mg, individual values, N = 2, listed as JNJ-67856633
[4] = Cycle 2 Day 1, 200 mg capsule, cohort 3 × 200 mg, individual values, N = 2, listed as JNJ-67856633
[5] = Cycle 2 Day 1, cohort 6 × 50 mg BID > QD, individual values, N = 2, listed as JNJ-67856633
[6] = Cycle 2 Day 1 / Cycle 1 Day 1, 50 mg capsule, cohort 50 mg, mean
[7] = Cycle 2 Day 1 / Cycle 1 Day 1, cohort 2 × 50 mg, mean
[8] = Cycle 2 Day 1 / Cycle 1 Day 1, cohort 2 × 200 mg food adlib, mean
[9] = Cycle 2 Day 1 / Cycle 1 Day 1, cohort 2 × 200 mg, mean
[10] = Cycle 2 Day 1 / Cycle 1 Day 1, cohort 3 × 200 mg, individual values, listed as JNJ-67856633
[11] = Cycle 2 Day 1 / Cycle 1 Day 1, cohort 4 × 50 mg, mean
[12] = Cycle 2 Day 1 / Cycle 1 Day 1, cohort 6 × 50 mg, mean
[13] = Cycle 2 Day 1 / Cycle 1 Day 1, cohort 8 × 50 mg > 6 × 50 mg, mean
[14] = Cycle 2 Day 1 / Cycle 1 Day 1, cohort 8 × 50 mg, mean

SMILES: O=C(Nc1ccnc(C(F)(F)F)c1)c1cnn(-c2cccc3c(=O)[nH]ccc23)c1C(F)(F)F [Compound A, 1-(1-oxo-1,2-dihydroisoquinolin-5-yl)-5-(trifluoromethyl)-N-[2-(trifluoromethyl)pyridin-4-yl]-1H-pyrazole-4-carboxamide]
- AUCτ (Cycle 1 Day 1, 50 mg capsule, cohort 6 × 50 mg (300 mg QD), mean, n = 9, listed as JNJ-67856633): 152^c μg · h/mL
- Cmax (Cycle 1 Day 1, 50 mg capsule, cohort 6 × 50 mg (300 mg QD), mean, listed as JNJ-67856633): 8.81 µg/mL
- Tmax (Cycle 1 Day 1, 200 mg capsule, cohort 3 × 200 mg, individual values, N = 2): 3.00, 3.00 h
- AUCτ [1]: 76.6 µg·h/mL
- Cmax [1]: 4.50 µg/mL
- Cmin (Cycle 2 Day 1, 50 mg capsule, cohort 50 mg, mean): 6.85 µg/mL
- Cmin (Cycle 2 Day 1, 50 mg capsule, cohort 2 × 50 mg, mean): 15.6 µg/mL
- Cmin (Cycle 2 Day 1, 50 mg capsule, cohort 4 × 50 mg, Subject 100032 excluded, mean): 30.4^e μg/mL
- Cmin (Cycle 2 Day 1, 50 mg capsule, cohort 6 × 50 mg (300 mg QD), mean): 39.5 µg/mL
- AUCτ [2]: 1144 µg·h/mL
- Cmax [2]: 55.2 µg/mL
- Cmin (Cycle 2 Day 1, 50 mg capsule, cohort 8 × 50 mg, mean): 55.6 µg/mL
- Cmax [3]: 14.5 µg/mL
- Cmin [3]: 15.5, μg/mL and 11.4 μg/mL
- Tmax [3]: 0.5 h
- Cmin (Cycle 2 Day 1, 200 mg capsule, cohort 2 × 200 mg food adlib, mean): 33.3 µg/mL
- Cmin (Cycle 2 Day 1, 200 mg capsule, cohort 2 × 200 mg, mean): 30.7 µg/mL
- AUCτ [4]: 458 µg·h/mL and 1811 µg·h/mL
- Cmax [4]: 21.2, μg/mL and 98.6 μg/mL
- Cmin [4]: 13.5 µg/mL and 71.2 µg/mL
- Tmax [4]: 0.00 h and 0.50 h
- Cmax (Cycle 2 Day 1, cohort 6 × 50 mg BID > QD (300 mg BID 7 days then 300 mg QD), individual values, N = 2): about 29.2 μg/mL; also recorded: about 67 μg/mL
- Cmax (Cycle 2 Day 1, cohort 6 × 50 mg BID > QD (300 mg BID 7 days then 300 mg QD), individual values, N = 2, listed as JNJ-67856633): 29.2, μg/mL and 67.0 μg/mL
- AUCτ (Cycle 2 Day 1, cohort 6 × 50 mg BID > QD, individual values, N = 2): about 651 μg · h/mL; also recorded: about 1406 μg · h/mL
- AUCτ [5]: 651 µg·h/mL and 1406 µg·h/mL
- Cmin [5]: 26.1, μg/mL and 50.6 μg/mL
- Tmax [5]: 3.00, 3.00 h
- Cmin (Cycle 2 Day 1, cohort 8 × 50 mg > 6 × 50 mg, Subject 100070 excluded, mean): 55.8^g μg/mL
- ARAUC [6]: 8.37
- ARCmax [6]: 7.30
- ARAUC (Cycle 2 Day 1 / Cycle 1 Day 1, 200 mg capsule, cohort 200 mg): 5.51^i
- ARCmax (Cycle 2 Day 1 / Cycle 1 Day 1, 200 mg capsule, cohort 200 mg, individual values, listed as JNJ-67856633): 4.81, and 3.21
- ARAUC [7]: 7.80
- ARCmax [7]: 6.56
- ARAUC [8]: 12.7
- ARCmax [8]: 12.0
- ARAUC [9]: 9.35
- ARCmax [9]: 7.40
- ARAUC [10]: 3.73 and 23.7
- ARCmax [10]: 2.72 and 21.9
- ARAUC [11]: 8.10
- ARCmax [11]: 7.32
- ARCmax (Cycle 2 Day 1 / Cycle 1 Day 1, cohort 6 × 50 mg BID > QD): 10.4^j
- ARAUC [12]: 8.50
- ARCmax [12]: 7.32
- ARAUC [13]: 9.80^g, h
- ARCmax [13]: 7.7^g
- ARAUC [14]: 12.4^f
- ARCmax [14]: 11.3^f
- AUC (human, plasma, oral, 50 mg, Cycle 1 Day 1, 50 mg capsule, cohort 50 mg, mean): 29.1 µg·h/mL
- Cmax (human, plasma, oral, 50 mg, Cycle 1 Day 1, 50 mg capsule, cohort 50 mg, mean, read-out: Cmax): 1.6 µg/mL
- Tmax (human, plasma, oral, 50 mg, Cycle 1 Day 1, 50 mg capsule, cohort 50 mg, median, read-out: Tmax): 3 h
- AUC (human, plasma, oral, 50 mg, Cycle 2 Day 1, 50 mg capsule, cohort 50 mg, mean): 180 µg·h/mL
- Cmax (human, plasma, oral, 50 mg, Cycle 2 Day 1, 50 mg capsule, cohort 50 mg, mean, read-out: Cmax): 8.74 µg/mL
- Tmax (human, plasma, oral, 50 mg, Cycle 2 Day 1, 50 mg capsule, cohort 50 mg, median, read-out: Tmax): 2 h
- AUC (human, plasma, oral, 100 mg, Cycle 1 Day 1, 50 mg capsule, cohort 2 × 50 mg, mean): 51.4 µg·h/mL
- Cmax (human, plasma, oral, 100 mg, Cycle 1 Day 1, 50 mg capsule, cohort 2 × 50 mg, mean, read-out: Cmax): 3 µg/mL
- Tmax (human, plasma, oral, 100 mg, Cycle 1 Day 1, 50 mg capsule, cohort 2 × 50 mg, median, read-out: Tmax): 4 h
- AUC (human, plasma, oral, 100 mg, Cycle 2 Day 1, 50 mg capsule, cohort 2 × 50 mg, mean): 366 µg·h/mL
- Cmax (human, plasma, oral, 100 mg, Cycle 2 Day 1, 50 mg capsule, cohort 2 × 50 mg, mean, read-out: Cmax): 19.9 µg/mL
- Tmax (human, plasma, oral, 100 mg, Cycle 2 Day 1, 50 mg capsule, cohort 2 × 50 mg, median, read-out: Tmax): 2 h
- AUC (human, plasma, oral, 200 mg, Cycle 1 Day 1, 50 mg capsule, cohort 4 × 50 mg, Subject 100032 excluded, mean): 118 µg·h/mL
